Common to all, as to type: in vivo
The nature of data set [1]: Terbinafine hydrochloride content in the nail tip after oral administration of a terbinafine hydrochloride tablet. The protocol: As conventionally used as a treatment method for tinea unguium, a terbinafine hydrochloride tablet was orally administered once a day continuously for 4 weeks. A part of the tip of the nail was then cut and measured for the concentration of the terbinafine hydrochloride in the same manner as in Examples 1 to 3.
In Comparative Example 1, the measurement of terbinafine hydrochloride was carried out after administration period of 4 weeks, because the terbinafine hydrochloride was not detected after administration of 2 days.

Data set [2] is described as follows: Terbinafine hydrochloride content in the nail tip after the dome-shaped applicator was bonded to the nail. The settings on record: 0.15 mL of 1% solution, two days; for terbinafine hydrochloride content in the nail: nail tip, individual samples No. 1-6; for concentration at 2 days: nail (tip), topical, 1% solution, average of No. 1-6. The method, then:
The dome-shaped applicator of the first type as shown in FIG. 2 (inside volume: 0.15 mL) was used. A commercially available instantaneous adhesive agent (cyanoacrylate-based adhesive) was applied to the flange of the applicator for bonding. The flange was then hermetically bonded to a surface of a nail. Using a syringe (inside volume: 0.5 mL), 0.15 mL of a solution having a terbinafine hydrochloride content of 1% was injected through the feed port. The feed port was then opened so that the inside and outside of the applicator was in fluid communication with each other. Thus, the inside air was released and the inside of the dome-shaped applicator reached ambient pressure (1.0 atm.). The applicator was maintained as such for two days and then removed from the nail. A part of the tip of the nail was cut and measured for the concentration of the terbinafine hydrochloride.
(§1) The dome-shaped applicator of the second type as shown in FIG. 8 (inside volume: 0.15 mL) was used. A commercially available instantaneous adhesive agent (cyanoacrylate-based adhesive) was applied to the flange of the applicator for bonding. The flange was then hermetically bonded to a surface of a nail. Using a syringe (inside volume: 0.5 mL), 0.15 mL of a solution having a terbinafine hydrochloride content of 1% was injected through the thick film portion near the opening of the dome-shaped applicator.
Because the dome-shaped applicator was hermetically bonded to the nail, the thin film portion in the upper part thereof inflated. […] The dome-shaped applicator was maintained in the hermetically bonded state for two days and then removed from the nail. A part of the tip of the nail was cut and measured for the concentration of the terbinafine hydrochloride.
as §1, with “the third” for “the second”, “FIG. 15” for “FIG. 8”, “0.15 ml.)” for “0.15 mL)”, “applicator. Because the dome-shaped applicator was hermetically bonded to the nail, the thin film portion in the upper part thereof was inverted and protruded as shown in FIG. 15(B).” for “applicator.”
The dome-shaped applicator was maintained in the hermetically bonded state for two days and then removed from the nail. A part of the tip of the nail was cut and measured for the concentration of the terbinafine hydrochloride.

Data set [3] is described as follows: Terbinafine hydrochloride content in the nail after applying a 1% external medicine to the nail surface. The settings on record: 1% external medicine applied to nail surface twice a day for 4 weeks. An excerpt:
Incidentally, a 1% terbinafine hydrochloride external medicine was applied to a surface of a nail twice a day continuously for 4 weeks. A part of the tip of the nail was then cut and measured for the concentration of the terbinafine hydrochloride.

SMILES strings stand for the structures. “And” between values parts separate entries of the source, which are not always exact repeats. Equal values may be shown once. Where a name gives a salt, the structure may show the parent alone.

As for `CN(C/C=C/C#CC(C)(C)C)Cc1cccc2ccccc12` [terbinafine hydrochloride], the “terbinafine hydrochloride content in the nail” value was 0.24 ng/mg and 0.38 ng/mg and 0.15 ng/mg and 0.28 ng/mg and 0.45 ng/mg and 0.11 ng/mg in data set [1] (Comparative Example 1: tablet orally once a day for 4 weeks, nail tip, individual samples No. 1-6, hydrochloride); 27.0 ng/mg and 40.8 ng/mg and 67.6 ng/mg and 42.9 ng/mg and 52.0 ng/mg and 32.4 ng/mg in data set [2] (Example 1: first-type applicator, ambient pressure (1.0 atm)); 43.7 ng/mg and 66.1 ng/mg and 88.8 ng/mg and 68.6 ng/mg and 104.9 ng/mg and 38.9 ng/mg in data set [2] (Example 2: second-type applicator, inside pressure 1.3 atm); 41.5 ng/mg and 67.2 ng/mg and 86.3 ng/mg and 70.2 ng/mg and 75.8 ng/mg and 42.3 ng/mg in data set [2] (Example 3: third-type applicator, inside pressure 1.3 atm). Besides, the concentration at 4 weeks in data set [1] (human, nail (tip), po, Comparative Example 1: tablet orally once a day for 4 weeks, average of No. 1-6) amounted to 380 ng/g. In addition, the “terbinafine hydrochloride detected in the nail” value in data set [1] (oral tablet, after administration of 2 days) is reported as “not detected”. Also, the concentration at 2 days in data set [2] (Example 1: first-type applicator, 1.0 atm) is 43800 ng/g; in data set [2] (Example 2: second-type applicator, 1.3 atm) it was 68500 ng/g; in data set [2] (Example 3: third-type applicator, 1.3 atm) it was 63900 ng/g. Also, in data set [3], the “penetration of terbinafine hydrochloride into a surface region of the nail” value is reported as “slightly penetrate”. In addition, the “terbinafine hydrochloride detected in a deep part of the nail” value in data set [3] was “Almost no terbinafine hydrochloride was detected”.
